Measurements reported in ChEMBL document CHEMBL1201862, “PubChem BioAssay data set” (2004).
The source made the active and inactive calls.

Key:
[1] = target: T1, Rac GTPase-activating protein 1 (Homo sapiens, UniProt Q9H0H5); assay: blockers of MgcRacGAP-driven Rac1 GTP hydrolysis – biochemical, ADP Hunter fluorescence, primary and confirmatory, confirmation (AID 624330); type: functional
T1 sequence (Q9H0H5 whole entry): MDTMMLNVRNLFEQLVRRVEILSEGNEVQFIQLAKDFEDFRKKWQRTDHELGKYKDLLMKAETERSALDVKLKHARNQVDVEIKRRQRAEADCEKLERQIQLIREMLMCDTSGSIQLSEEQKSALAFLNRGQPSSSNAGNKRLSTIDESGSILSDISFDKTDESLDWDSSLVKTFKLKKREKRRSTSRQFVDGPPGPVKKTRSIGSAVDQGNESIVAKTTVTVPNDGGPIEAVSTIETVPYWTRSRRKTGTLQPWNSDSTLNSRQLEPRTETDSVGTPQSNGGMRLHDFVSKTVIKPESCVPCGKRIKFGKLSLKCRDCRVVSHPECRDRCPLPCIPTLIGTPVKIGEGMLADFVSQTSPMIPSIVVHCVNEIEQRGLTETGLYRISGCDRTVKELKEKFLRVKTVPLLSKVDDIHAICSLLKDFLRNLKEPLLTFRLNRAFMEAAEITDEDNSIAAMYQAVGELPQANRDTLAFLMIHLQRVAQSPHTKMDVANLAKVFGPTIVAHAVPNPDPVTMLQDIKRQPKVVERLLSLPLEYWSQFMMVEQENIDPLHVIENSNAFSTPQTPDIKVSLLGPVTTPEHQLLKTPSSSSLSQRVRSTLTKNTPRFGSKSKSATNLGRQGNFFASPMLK

Cytochrome P450 2D6 = Cytochrome P450 2D6 (Homo sapiens, UniProt P10635);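 also: CYP2D6 member of a cytochrome P450 panel assay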
Cytochrome P450 2C9 = Cytochrome P450 2C9 (Homo sapiens, UniProt P11712)
Cytochrome P450 3A4 = Cytochrome P450 3A4 (Homo sapiens, UniProt P08684);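 also: CYP3A4 tested as one member of a cytochrome P450 panel screen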
[2] = fluconazole-exposed Candida albicans growth modulators – fluorescence, retest, confirmation (AID 2467); type: functional, cell-based
[3] = NIH-3T3 fibroblast cytotoxicity, dose response, cytotoxicity control, cell-based, fluorescence, Alamar Blue, secondary assay (AID 2327); type: functional;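 also: NIH-3T3 mouse fibroblasts cultured with fluconazole at 8 µg/mL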
Cytochrome P450 2C19 = Cytochrome P450 2C19 (Homo sapiens, UniProt P33261); assay: Cytochrome panel assay with activity outcomes. Panel member name: p450-cyp2c19 Compounds with AC50 equal or less than 10 uM are considered active; type: functional; conditions: read-out: AC50
[4] = target: T2, Corticotropin-releasing factor receptor 2/Corticotropin-releasing factor-binding protein (Homo sapiens, UniProt P24387+Q13324); assay: Dose Response confirmation of uHTS hits for small molecule antagonists of the CRF-binding protein and CRF-R2 receptor complex.; type: functional; conditions: read-out: IC50_Mean
T2 sequence (Q13324 whole entry): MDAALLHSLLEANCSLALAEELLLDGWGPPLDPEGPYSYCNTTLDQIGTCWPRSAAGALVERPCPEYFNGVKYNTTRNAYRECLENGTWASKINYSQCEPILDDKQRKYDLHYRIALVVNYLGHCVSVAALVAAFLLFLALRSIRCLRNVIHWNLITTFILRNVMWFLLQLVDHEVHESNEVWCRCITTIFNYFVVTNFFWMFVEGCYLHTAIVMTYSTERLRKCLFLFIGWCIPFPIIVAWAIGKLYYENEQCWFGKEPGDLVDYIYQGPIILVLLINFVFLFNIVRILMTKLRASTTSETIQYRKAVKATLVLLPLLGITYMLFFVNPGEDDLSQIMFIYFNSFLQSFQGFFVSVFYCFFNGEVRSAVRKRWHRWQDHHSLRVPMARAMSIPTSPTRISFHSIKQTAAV
T2 sequence (P24387 whole entry): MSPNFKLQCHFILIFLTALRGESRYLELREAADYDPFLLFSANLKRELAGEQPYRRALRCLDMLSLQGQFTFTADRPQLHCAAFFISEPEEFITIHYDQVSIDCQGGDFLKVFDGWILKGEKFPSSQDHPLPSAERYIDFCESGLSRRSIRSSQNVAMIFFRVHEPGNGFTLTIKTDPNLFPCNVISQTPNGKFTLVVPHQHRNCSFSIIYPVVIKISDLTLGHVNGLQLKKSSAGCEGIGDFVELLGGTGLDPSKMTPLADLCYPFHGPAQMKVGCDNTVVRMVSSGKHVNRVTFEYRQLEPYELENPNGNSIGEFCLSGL

[5] = target: T2, Corticotropin-releasing factor receptor 2/Corticotropin-releasing factor-binding protein; assay: activators of CRF receptor 2 with binding protein – uHTS hits, confirmation (AID 602473); type: functional; conditions: read-out: EC50_Mean
Cytochrome P450 1A2 = target: T3, Cytochrome P450 1A2 (Homo sapiens, UniProt P05177);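 also: PubChem cytochrome P450 panel assay, CYP1A2 panel member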
T3 sequence (P05177 whole entry): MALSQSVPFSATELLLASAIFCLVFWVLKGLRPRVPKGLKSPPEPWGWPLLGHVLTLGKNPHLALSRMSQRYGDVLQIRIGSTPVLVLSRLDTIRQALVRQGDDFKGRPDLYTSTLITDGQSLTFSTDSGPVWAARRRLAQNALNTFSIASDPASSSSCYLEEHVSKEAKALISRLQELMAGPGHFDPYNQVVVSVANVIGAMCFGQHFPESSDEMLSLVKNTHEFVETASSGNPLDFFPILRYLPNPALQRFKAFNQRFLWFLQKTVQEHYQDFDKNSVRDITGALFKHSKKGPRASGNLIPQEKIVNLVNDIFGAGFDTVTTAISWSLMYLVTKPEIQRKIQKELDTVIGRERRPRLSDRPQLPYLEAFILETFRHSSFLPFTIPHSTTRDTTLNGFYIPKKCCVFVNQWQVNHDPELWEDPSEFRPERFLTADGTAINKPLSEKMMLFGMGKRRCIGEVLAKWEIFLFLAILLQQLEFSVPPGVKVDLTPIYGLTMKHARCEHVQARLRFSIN

Sequence of Cytochrome P450 2C19 (P33261 whole entry): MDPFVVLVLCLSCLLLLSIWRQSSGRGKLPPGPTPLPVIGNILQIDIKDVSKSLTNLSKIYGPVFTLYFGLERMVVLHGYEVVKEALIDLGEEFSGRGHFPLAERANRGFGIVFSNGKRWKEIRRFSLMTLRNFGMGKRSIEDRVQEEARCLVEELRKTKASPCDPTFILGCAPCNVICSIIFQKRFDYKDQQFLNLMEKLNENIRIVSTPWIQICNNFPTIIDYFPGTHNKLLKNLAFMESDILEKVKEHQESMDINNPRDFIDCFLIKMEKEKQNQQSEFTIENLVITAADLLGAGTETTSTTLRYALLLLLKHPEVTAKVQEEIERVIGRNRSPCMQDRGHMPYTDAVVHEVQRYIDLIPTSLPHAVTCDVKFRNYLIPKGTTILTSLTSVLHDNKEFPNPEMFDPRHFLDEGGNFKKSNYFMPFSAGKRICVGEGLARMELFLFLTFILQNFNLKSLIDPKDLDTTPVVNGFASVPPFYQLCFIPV
Sequence of Cytochrome P450 3A4 (P08684 whole entry): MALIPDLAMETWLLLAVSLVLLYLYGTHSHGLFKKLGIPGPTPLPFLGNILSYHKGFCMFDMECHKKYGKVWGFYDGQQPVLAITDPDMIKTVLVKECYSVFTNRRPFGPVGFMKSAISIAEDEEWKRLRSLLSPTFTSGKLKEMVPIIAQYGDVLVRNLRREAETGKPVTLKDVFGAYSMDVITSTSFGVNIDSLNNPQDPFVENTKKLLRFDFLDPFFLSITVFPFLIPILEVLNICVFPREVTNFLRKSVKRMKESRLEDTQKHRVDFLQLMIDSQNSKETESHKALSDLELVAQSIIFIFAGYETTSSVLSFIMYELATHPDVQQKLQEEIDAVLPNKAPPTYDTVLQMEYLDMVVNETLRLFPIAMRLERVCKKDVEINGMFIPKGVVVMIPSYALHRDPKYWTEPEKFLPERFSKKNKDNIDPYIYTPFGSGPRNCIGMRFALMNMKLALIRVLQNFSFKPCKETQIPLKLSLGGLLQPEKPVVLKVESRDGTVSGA
Sequence of Cytochrome P450 2D6 (P10635 whole entry): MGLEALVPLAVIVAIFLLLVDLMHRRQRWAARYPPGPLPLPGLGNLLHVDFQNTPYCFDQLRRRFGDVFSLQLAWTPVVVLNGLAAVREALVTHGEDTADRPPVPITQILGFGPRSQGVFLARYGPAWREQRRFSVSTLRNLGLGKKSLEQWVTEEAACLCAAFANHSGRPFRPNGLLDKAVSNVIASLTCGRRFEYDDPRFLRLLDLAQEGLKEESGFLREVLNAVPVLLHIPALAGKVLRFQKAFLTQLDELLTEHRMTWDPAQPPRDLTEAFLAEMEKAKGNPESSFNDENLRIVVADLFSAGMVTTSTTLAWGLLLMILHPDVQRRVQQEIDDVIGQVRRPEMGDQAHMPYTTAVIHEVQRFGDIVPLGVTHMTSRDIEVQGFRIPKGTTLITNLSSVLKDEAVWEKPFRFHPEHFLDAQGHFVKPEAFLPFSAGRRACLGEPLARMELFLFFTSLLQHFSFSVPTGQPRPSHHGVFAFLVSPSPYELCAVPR
Sequence of Cytochrome P450 2C9 (P11712 whole entry): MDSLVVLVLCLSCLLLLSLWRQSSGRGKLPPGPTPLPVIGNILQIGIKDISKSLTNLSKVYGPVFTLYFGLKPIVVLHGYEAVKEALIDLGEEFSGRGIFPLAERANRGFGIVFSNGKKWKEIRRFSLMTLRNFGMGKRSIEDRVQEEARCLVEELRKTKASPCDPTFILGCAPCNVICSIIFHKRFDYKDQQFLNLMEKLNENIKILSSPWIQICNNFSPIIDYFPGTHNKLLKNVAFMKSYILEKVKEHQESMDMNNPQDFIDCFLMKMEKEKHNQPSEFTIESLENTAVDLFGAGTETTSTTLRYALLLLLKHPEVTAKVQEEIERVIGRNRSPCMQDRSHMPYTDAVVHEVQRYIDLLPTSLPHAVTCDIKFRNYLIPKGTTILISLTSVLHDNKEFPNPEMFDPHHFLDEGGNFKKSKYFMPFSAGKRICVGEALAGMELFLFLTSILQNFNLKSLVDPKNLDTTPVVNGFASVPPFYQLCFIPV

COc1ccc(C(=O)N/N=C/c2ccc(N3CCOCC3)s2)cc1OC
IC50 [1]: 110 µM (active)

O=C1C(Cl)=C(Sc2nnc3c4ccccc4c4ccccc4c3n2)C(=O)c2ccccc21
AC50 (Cytochrome P450 2D6): 3.98 µM (inconclusive)
AC50 (Cytochrome P450 2C9): 3.98 µM (inconclusive)
AC50 (Cytochrome P450 3A4): 5.01 µM (inconclusive)

CCOC(=O)C1CCN(CCC(=O)Nc2ccc(F)cc2)CC1
EC50 [2]: 5.18 µM (active)
EC50 [3]: > 150 µM (inactive)

CS(=O)(=O)Nc1ccc(Nc2c3ccccc3nc3ccccc23)cc1
AC50 (Cytochrome P450 2D6): 3.16 µM (inconclusive)
AC50 (Cytochrome P450 2C9): 6.31 µM (inconclusive)

C=C(CC1([C@@H](NP(=O)(c2ccccc2)c2ccccc2)[C@H]2C[C@@H]2CCN(C(=O)OCC)S(=O)(=O)c2ccc(C)cc2)CC1)c1ccccc1
AC50 (Cytochrome P450 2C9): 5.01 µM (inconclusive)
AC50 (Cytochrome P450 2C19): 1.26 µM (inconclusive)

CCOC(=O)C1CCN(c2cc3c(cc2NC(=O)c2cc(OC)ccc2Br)n(C)c(=O)n3C)CC1
IC50 [4]: > 47.1 µM (inactive)
EC50 [5]: > 53 µM (inactive)

COC(=O)c1sccc1NS(=O)(=O)c1ccccc1
IC50 [4]: > 47.1 µM (inactive)
EC50 [5]: > 53 µM (inactive)

O=S(=O)(Nc1ccc2c(c1)CCC2)c1cccs1
IC50 [4]: > 47.1 µM (inactive)
EC50 [5]: > 53 µM (inactive)

Cc1ccccc1CN1CCN(CC(=O)NCCCN2CCN(c3ccc(F)cc3)CC2)C1=O
AC50 (Cytochrome P450 2C9): 12.6 µM (inconclusive)
AC50 (Cytochrome P450 3A4): 25.1 µM (inconclusive)
AC50 (Cytochrome P450 2C19): 11.2 µM (inconclusive)

CCCCn1c(CN2CCN(C(=O)OCC)CC2)nc2c1c(=O)n(C)c(=O)n2C
EC50 [2]: > 38 µM (not active)
EC50 [3]: > 150 µM (inactive)

COc1cc(OC)cc(C(=O)NNC(=O)Cc2ccc(OC)c(S(=O)(=O)N3CCOCC3)c2)c1
EC50 [2]: > 38 µM (not active)
EC50 [3]: > 150 µM (inconclusive)

O=C1NC(Cc2c[nH]c3ccccc23)C(=O)N1Cc1cccc2ccccc12 (stereo not drawn)
IC50 [4]: > 47.1 µM (inactive)
EC50 [5]: > 53 µM (inactive)

COc1cccc(OC)c1OCCCCN1CCCC1
AC50 (Cytochrome P450 2D6): 14.1 µM (inconclusive)
IC50 [1]: 204 µM (active)
AC50 (Cytochrome P450 1A2): 15.8 µM (inconclusive)

Cc1c(/C=C2\SC(=O)N(CC(=O)Nc3ccc4c(c3)OCO4)C2=O)c2ccccc2n1C
AC50 (Cytochrome P450 2D6): 2.82 µM (inconclusive)
AC50 (Cytochrome P450 3A4): 0.2 µM (inconclusive)
AC50 (Cytochrome P450 1A2): 3.16 µM (inconclusive)

COc1ccccc1CNCCc1cccc(Cl)c1
IC50 [1]: 135 µM (active)

CCOc1ccc(/C=N/NC(=O)C(C)N(c2ccc(OC)cc2)S(C)(=O)=O)cc1OCC (stereo not drawn)
IC50 [4]: > 47.1 µM (inactive)
EC50 [5]: > 53 µM (inactive)

COc1ccc(S(=O)(=O)Nc2nc3ccccc3nc2NCC2CCCO2)cc1 (stereo not drawn)
IC50 [4]: > 47.1 µM (inactive)
EC50 [5]: > 53 µM (inactive)

COC(=O)c1sccc1NC(=O)c1cc(-c2ccc(C)cc2)nc2ccccc12
AC50 (Cytochrome P450 2C19): 10 µM (inconclusive)
AC50 (Cytochrome P450 1A2): 14.1 µM (inconclusive)

CCOC(=O)N/N=C/c1ccccc1F
AC50 (Cytochrome P450 2C19): 35.5 µM (inconclusive)

COc1cc(NC(=O)COC(=O)/C=C/c2ccc(O)c(OC)c2)cc(OC)c1
IC50 [1]: 51.7 µM (active)

CCOc1ccccc1NC(=O)COC(=O)C1COc2ccccc2O1 (stereo not drawn)
IC50 [4]: > 47.1 µM (inactive)
EC50 [5]: > 53 µM (inactive)

CS(=O)(=O)Nc1cccc(-c2nccc(-n3ccnc3)n2)c1
AC50 (Cytochrome P450 2C19): 39.8 µM (inconclusive)
